One data set addresses T1, MMP-14 (Homo sapiens, UniProt P50281).
T1 construct: the catalytic domains of the corresponding MMP were incubated in triplicate; purchased Enzo Life Science International, Inc
Further details: method as in PMID 30629065. To be noted: panel of MMPs; cited from earlier work.

For data set [1], the target named is T2, MMP-13 (Homo sapiens, UniProt P45452).
T2 construct: the catalytic domains of the corresponding MMP were incubated in triplicate; purchased Enzo Life Science International, Inc
Set-up: method as in PMID 30629065. To be noted: cited from earlier work.

In data set [2] the target is T3, MMP-2 (Homo sapiens, UniProt P08253).
T3 construct: the catalytic domains of the corresponding MMP were incubated in triplicate; purchased Enzo Life Science International, Inc
T3 sequence (P08253 110-446 limits assumed): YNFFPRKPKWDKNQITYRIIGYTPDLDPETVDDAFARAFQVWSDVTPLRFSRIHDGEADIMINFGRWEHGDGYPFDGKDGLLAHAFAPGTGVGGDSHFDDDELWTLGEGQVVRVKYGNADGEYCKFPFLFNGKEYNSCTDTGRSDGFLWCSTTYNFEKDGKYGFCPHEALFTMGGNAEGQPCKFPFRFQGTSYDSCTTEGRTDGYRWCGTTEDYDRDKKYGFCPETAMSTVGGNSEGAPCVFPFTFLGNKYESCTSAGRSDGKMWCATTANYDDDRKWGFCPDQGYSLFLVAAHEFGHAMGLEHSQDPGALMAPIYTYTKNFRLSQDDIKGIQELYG
Further details: method as in PMID 30629065. To be noted: cited from earlier work.

The next data set deals with T4, MMP-8 (Homo sapiens, UniProt P22894).
T4 construct: the catalytic domains of the corresponding MMP were incubated in triplicate; purchased Enzo Life Science International, Inc
T4 sequence (P22894 100-262 limits assumed): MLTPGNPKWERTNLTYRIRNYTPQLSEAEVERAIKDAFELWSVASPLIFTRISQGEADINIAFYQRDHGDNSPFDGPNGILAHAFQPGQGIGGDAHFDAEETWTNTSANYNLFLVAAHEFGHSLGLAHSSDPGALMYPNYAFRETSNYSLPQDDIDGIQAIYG
Set-up: method as in PMID 30629065. To be noted: panel of MMPs; cited from earlier work.

The target in the next data set is T5, MMP-7 (Homo sapiens, UniProt P09237).
T5 construct: the catalytic domains of the corresponding MMP were incubated in triplicate; purchased Enzo Life Science International, Inc
T5 sequence (P09237 95-267): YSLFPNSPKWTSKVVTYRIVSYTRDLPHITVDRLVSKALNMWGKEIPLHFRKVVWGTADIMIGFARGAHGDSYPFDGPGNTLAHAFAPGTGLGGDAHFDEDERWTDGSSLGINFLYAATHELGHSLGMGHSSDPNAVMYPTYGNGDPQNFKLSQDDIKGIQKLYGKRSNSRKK
Further details: method as in PMID 30629065. The note with it: panel of MMPs; cited from earlier work.

A short description of data set [3]: Thermodynamic solubility (shake flask method). The note with it: phosphate buffer, aqueous buffer, thermodynamic from solid; PBS pH 7.4, shake flask, room temperature; read-out: Experimental Water Solubility LogS (converted). In kind it is physicochemical. The method, then:
The samples were sonicated for 10 min and shaken overnight at 800 rpm (FB15013 TopMix, Fischer Scientific, Waltham, MA, USA) at room temperature. A first phase separation of supernatant and undissolved solid was performed by centrifugation at 5000 rpm for 20 min (Biofuge primo R). The supernatant was then transferred into Eppendorf tubes for a second centrifugation. An adequate dilution was made using the particle-free supernatant and the concentration quantified by LC-HRMS using a 4-point calibration curve (Agilent 1260 Infinity II).
PART A. Calibration curves of compounds for solubility
9e, 10a-e), 4-points calibration curves were made for each compound. Calibrations curves were obtained using four different concentrations of the corresponding compound (0.1 mg/mL, 0.01 mg/mL, 0.001 mg/mL and 0.0001 mg/mL). All samples were prepared in DMSO and measured in a LC-HRMS (Agilent 1260 Infinity II).
Figure S1. Calibration curves of all active compounds (solubility studies) (1, 2, 9a, 9e, 10a-e) […]

The next data set addresses T6, MMP-12 (Homo sapiens, UniProt P39900).
T6 construct: the catalytic domains of the corresponding MMP were incubated in triplicate; purchased Enzo Life Science International, Inc
Set-up: method as in PMID 30629065. The note with it: panel of MMPs; cited from earlier work.

For a further data set, the target named is T7, MMP-9 (Homo sapiens, UniProt P14780).
T7 construct: the catalytic domains of the corresponding MMP were incubated in triplicate; purchased Enzo Life Science International, Inc
T7 sequence (P14780 107-444 limits assumed): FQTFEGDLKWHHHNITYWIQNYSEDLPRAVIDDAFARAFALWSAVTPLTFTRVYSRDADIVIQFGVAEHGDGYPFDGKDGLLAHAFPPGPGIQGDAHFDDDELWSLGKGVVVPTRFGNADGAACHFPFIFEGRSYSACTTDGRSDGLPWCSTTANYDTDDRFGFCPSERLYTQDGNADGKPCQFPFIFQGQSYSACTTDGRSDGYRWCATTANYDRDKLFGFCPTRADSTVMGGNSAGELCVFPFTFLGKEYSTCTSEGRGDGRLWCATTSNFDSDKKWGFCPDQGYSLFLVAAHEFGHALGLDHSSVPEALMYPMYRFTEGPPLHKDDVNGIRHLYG
Further details: method as in PMID 30629065. The note with it: panel of MMPs; cited from earlier work.

Another data set has as its target T8, MMP-3 (Homo sapiens, UniProt P08254).
T8 construct: the catalytic domains of the corresponding MMP were incubated in triplicate; purchased Enzo Life Science International, Inc
Further details: method as in PMID 30629065. To be noted: panel of MMPs; cited from earlier work.

In a further data set the target is T9, MMP-1 (Homo sapiens, UniProt P03956).
T9 construct: the catalytic domains of the corresponding MMP were incubated in triplicate; purchased Enzo Life Science International, Inc
T9 sequence (P03956 100-269 limits assumed): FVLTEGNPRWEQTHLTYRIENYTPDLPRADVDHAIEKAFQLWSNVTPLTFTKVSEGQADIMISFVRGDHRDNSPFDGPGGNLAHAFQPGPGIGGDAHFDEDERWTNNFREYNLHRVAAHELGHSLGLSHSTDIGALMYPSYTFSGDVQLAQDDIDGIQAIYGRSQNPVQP
Set-up: method as in PMID 30629065. The note with it: panel of MMPs; cited from earlier work.

The next data set deals with T10, MMP-10 (Homo sapiens, UniProt P09238).
T10 construct: the catalytic domains of the corresponding MMP were incubated in triplicate; purchased Enzo Life Science International, Inc
T10 sequence (P09238 99-263 limits assumed): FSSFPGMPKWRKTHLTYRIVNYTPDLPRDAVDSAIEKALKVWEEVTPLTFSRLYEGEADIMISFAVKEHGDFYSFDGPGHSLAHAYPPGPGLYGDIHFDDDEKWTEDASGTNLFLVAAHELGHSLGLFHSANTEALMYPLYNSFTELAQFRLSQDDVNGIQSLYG
Further details: method as in PMID 30629065. To be noted: panel of MMPs; cited from earlier work.

The target of the next data set is MMP-13 catalytic domain (Homo sapiens, UniProt P45452). The data set is described as follows: WaterLOGSY NMR experiment. To be noted: 5 μM protein, 0.15 mM ligand, 25 °C.
Data set [4] addresses commercially available MMP-13 active protein (Homo sapiens, UniProt P45452). The data set is described as follows: Enzymatic activity of commercial MMP-13, dose response of BiPS. In kind it is biochemical. The text has this: (§1) Figure S5. PyMOL stick and cartoon representation of the bidentate interaction established by the hydroxamate and the catalytic Zinc ion in both MMP-13 (left) and MMP-2 (right). Hydrogen bonds are shown in dashed lines, the catalytic zinc ion is shown as grey sphere. For the sake of clarity, no hydrogens are shown.
(§2) Figure S6. SDS-PAGE analysis of the recombinantly expressed catalytic dom ain of MMP-13 purified by metal affinity chromatography. M corresponds to the molecular weight markers ( k D a ) . […]
(§3) Log(BiPS [M]) Log(BiPS [M])
(§4) Figure S7. Dose response curve used to determine IC50 of BiPS for A) recombinantly expressed catalytic domain of MMP-13, and B) commercially available MMP-13 active protein. […]

Data set [5] deals with T11, recombinantly expressed catalytic domain of MMP-13 (Homo sapiens, UniProt P45452).
T11 construct: containing the catalytic site (amino acid residues −104 to 274); TEV cleavage site (C); 6xHis (C); made in house; host or cells: Escherichia coli BL21-DE3 pLys S
As to the kind of experiment: Enzymatic activity of recombinantly expressed MMP-13 catalytic domain, dose response of BiPS. Format: biochemical. To be noted: recombinantly expressed catalytic domain of MMP-13, after refolding.
From the text: To this end, a recombinantly expressed catalytic domain of MMP-13 was purified under denaturing conditions (Figure S6); the process lead to a very pure sample preparation.
as §1, §2, §3, §4

Data set [6] deals with T2, MMP-13. The data set is described as follows: MMP inhibition assay (MMP Inhibitor Profiling Kit, thiopeptide substrate), MMP-13. The note with it: catalytic domain, 37 °C, pH 7.5. In kind it is biochemical. As to the method:
MMP activity measurements were performed using an MMP Inhibitor Profiling Kit purchased from Enzo Life Science International, Inc. (Farmingdale, NY, USA), and following the manufacturer’s protocol with slight modifications. […] Hydrolysis of this bond by MMPs produces a sulfhydryl group that reacts with DTNB to form 2-nitro-5-thiobenzoic acid, which was detected by its absorbance at 414 nm (microplate photometer 90 Thermo Scientific Multiscan FC).
(§5) The assay buffer contained the following components: 50 mM HEPES, 10 mM CaCl2 95, 0.05% Brij-35, and 1 mM DTNB at pH 7.5. After addition of the substrate, the increase of absorbance was recorded in 1 min time intervals for 30 min. Data were plotted as OD versus time for each sample to obtain the reaction velocity (V) in OD per min. The percentage of residual activity for each compound was calculated using the following formula: % of remaining activity = (V in the presence of inhibitor/Vcontrol) × 100. An inhibitor, NNGH, was included as a prototypic control inhibitor.

For data set [7], the target named is T3, MMP-2. As to the kind of experiment: MMP inhibition assay (MMP Inhibitor Profiling Kit, thiopeptide substrate), MMP-2. Format: biochemical. The note with it: catalytic domain, 37 °C, pH 7.5. As to the method: MMP activity measurements were performed using an MMP Inhibitor Profiling Kit purchased from Enzo Life Science International, Inc. (Farmingdale, NY, USA), and following the manufacturer’s protocol with slight modifications. Proteolytic activity was measured using a thiopeptide substrate (Ac-PLG-[2-mercapto-4-methylpentanoyl]-LG-OC2H5) where the MMP cleavage site peptide bond has been replaced by a thioester bond. Hydrolysis of this bond by MMPs produces a sulfhydryl group that reacts with DTNB to form 2-nitro-5-thiobenzoic acid, which was detected by its absorbance at 414 nm (microplate photometer 90 Thermo Scientific Multiscan FC).
as §5, with “Enzyme reactions were carried out at 37 °C in a 100 μL final volume of solutions, where the catalytic domains of the corresponding MMP were incubated in triplicate with at least seven concentrations of inhibitors. The assay” for “The assay”, “control inhibitor. IC50 calculations in MMP-13 and MMP-2 for active compounds are shown in Supplementary Materials (Figure S9)” for “control inhibitor.”
The concentration of the compound that provided 50% inhibition of enzymatic activity (IC50) was determined by using semi-logarithmic dose–response plots (Graph Pad Prism 5.0 for Windows, Graph Pad Software Inc., San Diego, CA, USA, 2007).

Converted amounts (≈) assume the structure as drawn. Like-named read-outs stand apart in the source and are kept apart here.

One may read the IC50 as the concentration that inhibits the measured activity by half. The term solubility denotes the dissolved amount per volume that the medium holds. The melting point is the temperature, or range, at which the solid turns liquid.

T6 sequence (P39900 106-263 limits assumed): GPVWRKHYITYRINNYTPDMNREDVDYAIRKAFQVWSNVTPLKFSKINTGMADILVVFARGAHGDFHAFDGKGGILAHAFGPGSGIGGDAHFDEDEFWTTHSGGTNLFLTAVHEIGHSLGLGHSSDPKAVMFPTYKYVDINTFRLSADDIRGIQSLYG
T8 sequence (P08254 100-272 limits assumed): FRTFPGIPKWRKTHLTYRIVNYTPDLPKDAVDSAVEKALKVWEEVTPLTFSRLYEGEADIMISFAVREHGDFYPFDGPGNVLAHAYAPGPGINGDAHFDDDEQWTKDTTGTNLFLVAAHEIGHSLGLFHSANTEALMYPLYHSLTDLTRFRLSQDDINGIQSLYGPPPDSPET

Consider `O=C(NO)[C@@H](Cc1ccccc1)NS(=O)(=O)c1ccc(-n2cc(CCn3nc4c(Br)c(Br)c(Br)c(Br)c4n3)nn2)cc1` [Compound 1], for which the half-maximal inhibitory concentration (IC50) was > 1000 nM on MMP-14; 3.7 nM at MMP-13 [1] (panel of MMPs, read-out: IC50 MMP-13); 3.7 ± 1.85 nM on MMP-13 [1] (previous work, read-out: MMP-13 IC50); 70 nM on MMP-2 [2] (panel of MMPs, read-out: IC50 MMP-2); 70 nM on MMP-2 [2] (previous work, read-out: MMP-2 IC50); > 500 nM on MMP-8. For the same compound, the 50% inhibitory concentration (IC50) at MMP-7 is > 1000 nM; at MMP-12, 17.8 nM; at MMP-9 it was > 500 nM; at MMP-3, 500 nM; on MMP-1 it was > 1000 nM; at MMP-10, 434 nM. Further, the solubility in data set [3] was 2.88 µM (≈ 2.45 µg/mL).

For `O=C(NO)[C@@H](Cc1ccccc1)NS(=O)(=O)c1ccc(-c2ccccc2)cc1` [BiPS, (2R)-[(4-biphenylylsulfonyl)amino]-N-hydroxy-3-phenylpropionamide], the “Interaction with the MMP-13 catalytic domain (WaterLOGSY)” value at MMP-13 catalytic domain is listed as “positive signals”. In addition, the values for the IC50 in [4] and in [5] were 2.06 nM and 1.44 nM, respectively.

In the case of `O=C(NO)[C@@H](Cc1ccccc1)NS(=O)(=O)c1ccc(-n2cc(CCN3C(=O)c4c(Br)c(Br)c(Br)c(Br)c4C3=O)nn2)cc1` [Compound 10c, (R)-N-hydroxy-3-phenyl-2-((4-(4-(2-(4,5,6,7-tetrabromo-1,3-dioxoisoindolin-2-yl)ethyl)-1H-1,2,3-triazol-1-yl)phenyl)sulfonamido)propenamide], the melting point lay within 195 to 197 °C. On MMP-13 [6], this compound showed an IC50 of 61 ± 18 nM. Also, in data set [3], the solubility was 0.141 µM (≈ 0.124 µg/mL). Further, on MMP-2 [7], half-maximal inhibition (IC50) required 17 ± 4 nM.

The values above are taken from article PMC8467962, “Design and Synthesis of Water-Soluble and Potent MMP-13 Inhibitors with Activity in Human Osteosarcoma Cells” (International Journal of Molecular Sciences, 2021).
